What was measured:
HPL1D = assay: Sensitivity of cell proliferation to erlotinib; format: cell-based; settings: Homo sapiens, read-out: IC50 (Erlotinib) HPL1D; EGFR WT, KRAS WT
From the text: (§1) NHBE (normal human bronchiolar epithelial cells) are primary cells obtained from donor lungs and commercially available from Cambrex. The HPLID (human peripheral lung epithelial) cell line has been immortalized with the SV40 large T-antigen. WI-38: human lung fibroblast cell line. HPLID, NHBE and WI-38 cells will serve as controls in the chemical screens. WT: wildtype; WT*: over-expressed wildtype.

H2030 = assay: Non Small Cell Lung Cancer Proliferation Assay (Alamar Blue); format: cell-based, human; settings: Homo sapiens, NCI-H2030, dose response 10 μM to 5 nM
Protocol: (§2) These cells have a doubling time of 1-2 days. All cell types are adherent and grow in colonies. The cells should be kept at a density between 50,000 cells/mL-500,000 cells/mL to provide for optimum growth and adequate nutrition. The cell line should be maintained at 37° C. in a humidified atmosphere with 5% CO2 in a sterile cell culture incubator.
(§3) To perform the assay, the Non Small Cell Lung Cancer lines are diluted in media and plated into 384 well microplates at a final density of 250 cells in 45 μL.
(§4) High Controls for this assay are made by treating Non Small Cell Lung Cancer cells with 5 ul of 10% DMSO. [Final concentration in this assay is 1% DMSO].
(§5) Important Note: All compounds for testing in this assay should be done at the final concentration of 1% DMSO.
(§6) After addition, the cells are placed in cell culture incubator at 37° C. for 48 hours for complete treatment.
(§7) After drug treatment, cytotoxicity is measured by Alamar Blue reduction.
(§8) The cells are incubated for 48 hours at 37° C. to complete the Alamar Blue reduction.
(§9) The final step in the assay is to measure the amount of Alamar Blue reduction. […] The Alamar Blue fluorescence is measured at an excitation of 530 nm and emission of 590 nm.
(§10) For the NSCLC project, the cell based assay was screened against a small molecule library of approximately 200,000 compounds. The compound library is stored in our automated robotic freezer (Biophile) at −20° C. in 100% DMSO. Compound freeze and thaw cycles are kept to a minimum. […] This assay was performed on a fully automated linear track robotic platform (CRS F3 Robot System, Thermo Electron Corp., Ontario, Canada) utilizing several integrated peripherals for plate handling, liquid dispensing, and readout detection. […] The microplates are then placed at 37° C. for 48 hours to complete treatment of cells with compounds. Next, 5 ul of alamar blue was added using a liquid dispenser (FlexDrop Precision Dispenser, Perkin Elmer, Mass., USA) and incubated for 48 hours at 37° C. The alamar blue prompt fluorescence was measured on Victor V (Victor^3 V, Perkin Elmer, Mass., USA) and output data files were loaded into ORIS (Oncology Research Informatics System, MSKCC, NY, USA), a screening data acquisition and analysis platform.

H3255 = assay: as above; format: cell-based, human; settings: Homo sapiens, NCI-H3255, dose response 10 μM to 5 nM
Protocol: as §2, §3, §4, §5, §6, §7, §8, §9, §10

in vitro = settings: human
Protocol: as §1
Compounds were tested in dose response studies from 10 μM to 5 nM against several non small cell lung cancer lines: H358, H827, H1118, H1650, H1734, H1975, H2030, and H3255, and were also studied in a 72 hour cytotoxicity assay against the NHBE and WI-38 cell lines.

H827 = assay: Non Small Cell Lung Cancer Proliferation Assay (Alamar Blue), dose response; settings: Homo sapiens, read-out: H827 Dose Response (uM)
Protocol: (§16) This assay was performed on a fully automated linear track robotic platform (CRS F3 Robot System, Thermo Electron Corp., Ontario, Canada) utilizing several integrated peripherals for plate handling, liquid dispensing, and readout detection. […] The microplates are then placed at 37° C. for 48 hours to complete treatment of cells with compounds. Next, 5 ul of alamar blue was added using a liquid dispenser (FlexDrop Precision Dispenser, Perkin Elmer, Mass., USA) and incubated for 48 hours at 37° C. The alamar blue prompt fluorescence was measured on Victor V (Victor^3 V, Perkin Elmer, Mass., USA) and output data files were loaded into ORIS (Oncology Research Informatics System, MSKCC, NY, USA), a screening data acquisition and analysis platform. […]

H1118 = assay: as above; settings: Homo sapiens, read-out: H1118 Dose Response (uM)
Protocol: as §16

H1975 = assay: Non Small Cell Lung Cancer Proliferation Assay (Alamar Blue); format: cell-based, human; settings: Homo sapiens, NCI-H1975, dose response 10 μM to 5 nM
Protocol: as §2, with “Non Small Cell Lung Cancer cell lines are grown and maintained in Corning 175 cm2 flasks in RPMI 1640 media supplemented with 10% FBS, 1% antibiotic solution, 1% additional glutamine and pyruvate. These” for “These”
(§11) To perform the assay, the Non Small Cell Lung Cancer lines are diluted in media and plated into 384 well microplates at a final density of 250 cells in 45 μL. To ensure consistency and minimal pipetting error, the cells are plated using the Multidrop 384 with the following settings: Rocker Switch set at 384, Volume 45 and Column 24.
(§12) Low Controls for this assay are made by treating Non Small Cell Lung Cancer cells with 5 ul of staurosporine at 250 uM in 10% DMSO and 1% SDS. [Final concentration in this assay is 25 uM staurosporine in 1% DMSO and 0.1% SDS.]
as §4
(§13) The remaining wells of the 384 microplate may be treated with different compounds depending on the study. Important Note: All compounds for testing in this assay should be done at the final concentration of 1% DMSO.
as §6
(§14) After drug treatment, cytotoxicity is measured by Alamar Blue reduction. 5 μL of Alamar Blue is added to the 384 microplates using the Flexdrop.
as §8, §9
(§15) For the NSCLC project, the cell based assay was screened against a small molecule library of approximately 200,000 compounds. The compound library is stored in our automated robotic freezer (Biophile) at −20° C. in 100% DMSO. Compound freeze and thaw cycles are kept to a minimum. Compounds for use are diluted into the appropriate concentration and plated into 384 well microplates using our custom built low volume 384-well head tool (TPS 384, Apricot Designs Inc., CA, USA). This assay was performed on a fully automated linear track robotic platform (CRS F3 Robot System, Thermo Electron Corp., Ontario, Canada) utilizing several integrated peripherals for plate handling, liquid dispensing, and readout detection. First, non-small cell lung cancer cell lines are dispensed into 384 well microplates (Corning #3712 Tissue Culture Treated Plate, Corning, N.Y., USA) with 5 μL of test compounds at 100 uM in 10% DMSO for screening studies or 1 mM in 10% DMSO to 50 nM in 10% DMSO for dose response studies. The microplates are then placed at 37° C. for 48 hours to complete treatment of cells with compounds. Next, 5 ul of alamar blue was added using a liquid dispenser (FlexDrop Precision Dispenser, Perkin Elmer, Mass., USA) and incubated for 48 hours at 37° C. The alamar blue prompt fluorescence was measured on Victor V (Victor^3 V, Perkin Elmer, Mass., USA) and output data files were loaded into ORIS (Oncology Research Informatics System, MSKCC, NY, USA), a screening data acquisition and analysis platform.

H1650 = assay: as above; format: cell-based, human; settings: Homo sapiens, NCI-H1650, dose response 10 μM to 5 nM
Protocol: as §2, with “Non Small Cell Lung Cancer cell lines are grown and maintained in Corning 175 cm2 flasks in RPMI 1640 media supplemented with 10% FBS, 1% antibiotic solution, 1% additional glutamine and pyruvate. These” for “These”
as §11, §12, §4, §13, §6, §14, §8, §9, §15

H1734 = assay: Non Small Cell Lung Cancer Proliferation Assay (Alamar Blue), dose response; settings: Homo sapiens, NCI-H1734, read-out: H1734 Dose Response (uM)
Protocol: as §16

H358 = assay: as above; settings: Homo sapiens, NCI-H358, read-out: H358 Dose Response (uM)
Protocol: as §16

IC50 (H2030) [µM]	IC50 (H3255) [µM]	IC50 at 72 h (in vitro) [µM]	IC50 (H827) [µM]	IC50 (H1118) [µM]	IC50 (H1975) [µM]	IC50 (H1650) [µM]	IC50 (H1734) [µM]	IC50 (H358) [µM]	Structure (SMILES)	IC50 (HPL1D) [µM]	IC50 at 72 h (in vitro; NHBE CytoTox (uM)) [µM]
–	–	–	–	–	–	–	–	–	C#Cc1cccc(Nc2ncnc3cc(OCCOC)c(OCCOC)cc23)c1 [Erlotinib, erlotinib]	10	–
> 10	> 10	> 10	> 10	> 10	> 10	> 10	> 10	> 10	CN/N=C1\C=NN(c2ccccc2)C(=O)C1Cl (centres unmarked) [compound 257024]	–	> 10

From patent publication US20130131062A1, “PYRIDAZINONES AND FURAN-CONTAINING COMPOUNDS” (priority 2006, published 2013)
